In ChEMBL document CHEMBL1201862, “PubChem BioAssay data set” (2004):
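Tested at 5 concentrations; 48 h exposure; 96-well plates; endpoints linearly interpolated, else capped at highest concentration. At the GI50, growth is halved.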 Activity calls are given as the source filed them. Cut-off read from the data, not from the text of the source: active = GI50 up to about 1.1 µM and inactive = higher.

Legend:
Test in all cases: growth of human tumour cells (NCI), 48 h
A549 = test system: A549
ACHN = test system: ACHN
HCC 2998 = test system: HCC 2998
IGROV-1 = test system: IGROV-1
KM12 = test system: KM12
MDA-MB-435 = test system: MDA-MB-435
NCI-H522 = test system: NCI-H522
OVCAR-3 = test system: OVCAR-3
RPMI-8226 = test system: RPMI-8226
SF-268 = test system: SF-268
SF-295 = test system: SF-295
SF-539 = test system: SF-539
SK-MEL-28 = test system: SK-MEL-28
SK-OV-3 = test system: SK-OV-3
SNB-19 = test system: SNB-19
SNB-75 = test system: SNB-75
SW-620 = test system: SW-620
T47D = test system: T47D
TK-10 = test system: TK-10
OVCAR-4 = test system: OVCAR-4

Measured: GI50

CC1(C)C2CCC1C(=O)C(C=O)C2 (configuration not stated)
inactive: A549 > 100 µM | ACHN > 100 µM | HCC 2998 > 100 µM | IGROV-1 > 100 µM | KM12 > 100 µM | MDA-MB-435 > 100 µM | NCI-H522 > 100 µM | OVCAR-3 > 100 µM | RPMI-8226 > 100 µM | SF-268 > 100 µM | SF-295 > 100 µM | SF-539 74.5 µM | SK-MEL-28 > 100 µM | SK-OV-3 > 100 µM | SNB-19 > 100 µM | SNB-75 79.1 µM | SW-620 > 100 µM | T47D > 100 µM | TK-10 > 100 µM

CCOC(=O)[C@H]1C[C@@H](C(=O)c2ccccc2)N2N=C(c3ccc(Br)cc3)C=C[C@H]12
inactive: A549 > 100 µM | ACHN > 100 µM | HCC 2998 > 100 µM | KM12 > 100 µM | MDA-MB-435 > 100 µM | OVCAR-3 > 100 µM | OVCAR-4 > 100 µM | RPMI-8226 > 100 µM | SF-268 > 100 µM | SF-295 > 100 µM | SK-MEL-28 > 100 µM | SK-OV-3 > 100 µM | SNB-19 > 100 µM | SNB-75 > 100 µM | SW-620 > 100 µM | T47D > 100 µM | TK-10 > 100 µM

Clc1ccc(CSc2ncnc3c2ncn3C2CCCCO2)cc1 (configuration not stated)
inactive: A549 25.2 µM | ACHN 16.1 µM | HCC 2998 18.6 µM | IGROV-1 30.3 µM | KM12 19.1 µM | MDA-MB-435 18.2 µM | NCI-H522 13.8 µM | OVCAR-3 15.7 µM | OVCAR-4 25.2 µM | RPMI-8226 14.3 µM | SF-268 23.3 µM | SF-295 15.7 µM | SK-MEL-28 22.8 µM | SK-OV-3 21.4 µM | SNB-19 34.8 µM | SNB-75 20.2 µM | SW-620 29.9 µM | T47D 17.4 µM | TK-10 21.8 µM

CO[C@@H](C(=O)OC1C=CC2(CC1)C(=O)N(C)c1ccccc12)c1ccccc1 (some centres not stated)
inactive: A549 > 100 µM | ACHN > 100 µM | HCC 2998 > 100 µM | IGROV-1 > 100 µM | KM12 > 100 µM | MDA-MB-435 94.8 µM | OVCAR-3 > 100 µM | OVCAR-4 70.3 µM | RPMI-8226 50.6 µM | SF-295 > 100 µM | SK-MEL-28 > 100 µM | SK-OV-3 > 100 µM | SNB-19 > 100 µM | SNB-75 > 100 µM | SW-620 > 100 µM | T47D 44.2 µM | TK-10 > 100 µM

OCCCCCCCCCCCOc1ccc(C2OCC3(CO2)COC(c2ccc(OCCCCCCCCCCCO)cc2)OC3)cc1 (configuration not stated)
inactive: A549 > 50 µM | ACHN > 50 µM | HCC 2998 > 50 µM | IGROV-1 > 50 µM | KM12 > 50 µM | MDA-MB-435 > 50 µM | OVCAR-3 > 50 µM | OVCAR-4 > 50 µM | RPMI-8226 > 50 µM | SF-268 > 50 µM | SF-295 > 50 µM | SF-539 > 50 µM | SK-MEL-28 > 50 µM | SK-OV-3 > 50 µM | SNB-19 > 50 µM | SNB-75 > 50 µM | SW-620 > 50 µM | T47D > 50 µM | TK-10 > 50 µM

Cc1c(C(=O)OCc2ccccc2)[n+]([O-])c2cc(F)c(F)cc2[n+]1[O-]
inactive: A549 3.2 µM | ACHN 1.94 µM | HCC 2998 1.9 µM | IGROV-1 1.73 µM | KM12 5.68 µM | MDA-MB-435 2.15 µM | NCI-H522 2 µM | OVCAR-4 1.77 µM | RPMI-8226 4.41 µM | SF-268 1.25 µM | SF-295 2.16 µM | SF-539 2.52 µM | SK-MEL-28 2.06 µM | SNB-19 2.08 µM | SNB-75 2.7 µM | T47D 1.51 µM | TK-10 16.3 µM
active: OVCAR-3 1.01 µM | SW-620 0.64 µM

COC(=O)C(CCCCN)NC(C)=O.Cc1ccc(C(=O)Nc2ccc(S(=O)(=O)O)c3cc(S(=O)(=O)O)cc(S(=O)(=O)O)c23)cc1NC(=O)c1cccc(NC(=O)Nc2cccc(C(=O)Nc3cc(C(=O)Nc4ccc(S(=O)(=O)O)c5cc(S(=O)(=O)O)cc(S(=O)(=O)O)c45)ccc3C)c2)c1
inactive: A549 > 50 µM | ACHN > 50 µM | HCC 2998 > 50 µM | KM12 > 50 µM | MDA-MB-435 > 50 µM | OVCAR-3 > 50 µM | RPMI-8226 > 50 µM | SF-268 > 50 µM | SF-295 > 50 µM | SF-539 > 50 µM | SK-MEL-28 > 50 µM | SK-OV-3 > 50 µM | SNB-19 > 50 µM | SNB-75 > 50 µM | SW-620 > 50 µM | T47D > 50 µM
active: OVCAR-4 0.5 µM
